{"source": "patent US20260199426A1", "about": "“CYCLIC LIPOPEPTIDE ANTIBIOTIC COMPOUNDS FOR USE IN THE TREATMENT OF PROTEIN AGGREGATION DISEASE” (DEUTSCHES ZENTRUM FÜR NEURODEGENERATIVE ERKRANKUNGEN E. V., priority 2022, published 2026)", "key": {"[1]": {"target": "N-terminally acetylated alpha-synuclein (Asyn) (Homo sapiens, UniProt P37840)", "assay": "Seeded α-synuclein aggregation assay (ThT fluorescence, TEM)", "type": "biochemical", "details": "for in vitro aggregation of alpha-synuclein (ThT fluorescence): 3-fold excess of compound, 25 μM Asyn monomers, 1% (v/v) fibril seeds, 37° C.; for Asyn oligomer formation (TEM) / Asyn fibril morphology (TEM): compound/Asyn mixtures", "method": "(§1) (A, B) Thioflavin-T (ThT) fluorescence curves of N-terminally acetylated alpha-synuclein (Asyn) in the absence (cross) and presence of a 3-fold excess (white circles) of compound. […] Quantitative analysis of Asyn aggregation kinetics was performed by nonlinear regression with sigmoidal fitting to determine the midpoint value (Tm) of the fluorescence curve as well as the fluorescence span. Unpaired two-tailed t-test was performed to test the null hypothesis (p≤0.0332(*), p≤0.002(**), p≤0.0002 (***), p≤0.0001 (****)). […] (C) TEM imaging analysis of the compound/Asyn mixtures. Scale bars correspond to 200 nm.\nas §1, with “ThT” for “Thioflavin-T (ThT)”, “circles or triangles)” for “circles)”\n(A) ThT fluorescence curves of N-terminally acetylated alpha-synuclein (Asyn) in the absence (cross) and presence of a 3-fold excess (white circles) of compound. […] Quantitative analysis of Asyn aggregation kinetics was performed by nonlinear regression with sigmoidal fitting to determine the midpoint value (Tm) of the fluorescence curve as well as the fluorescence span.\nAsyn protein stock solutions were prepared in 50 mM HEPES at pH 7.4 with 100 mM NaCl. Stocks of compounds were prepared in the same buffer (500 μM) or as 10 mM compound in DMSO. […] The microplate was likewise subjected to the incubation and fluorescence measurement program used in in vitro assay 1. After about 2-4 days of incubation, ThT fluorescence emission reached the maximal value and the Asyn fibril-containing mixture was collected as “fibril seed” mixture for subsequent Asyn aggregation experiments."}, "[2]": {"tested_on": "Tau aggregation in HEK biosensor cells (TauRD^LM-GFP)", "details": "induced by cell lysate containing Tau aggregates; 0.25 μM to 40 μM, 22 h, lipofectamine"}, "[3]": {"target": "bovine serum albumin (BSA) (Bos taurus, UniProt P02769)", "sequence (P02769 25-607)": "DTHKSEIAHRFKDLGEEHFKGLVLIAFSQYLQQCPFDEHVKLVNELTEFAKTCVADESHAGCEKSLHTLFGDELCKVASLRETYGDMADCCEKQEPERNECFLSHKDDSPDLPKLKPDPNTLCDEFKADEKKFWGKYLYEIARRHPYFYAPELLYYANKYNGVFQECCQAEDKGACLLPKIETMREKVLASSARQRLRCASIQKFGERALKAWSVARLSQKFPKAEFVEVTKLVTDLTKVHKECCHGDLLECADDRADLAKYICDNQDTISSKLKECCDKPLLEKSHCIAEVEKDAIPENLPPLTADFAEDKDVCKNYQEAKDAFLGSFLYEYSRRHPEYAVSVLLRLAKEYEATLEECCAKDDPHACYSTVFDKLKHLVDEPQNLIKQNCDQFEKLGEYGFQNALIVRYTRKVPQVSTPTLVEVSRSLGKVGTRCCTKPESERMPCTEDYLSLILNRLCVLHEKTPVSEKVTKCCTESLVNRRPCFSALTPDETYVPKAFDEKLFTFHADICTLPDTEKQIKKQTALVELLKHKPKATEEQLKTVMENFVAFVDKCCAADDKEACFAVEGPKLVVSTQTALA", "details": "Shivani A et al. 2020; cited from earlier work"}, "[4]": {"target": "T1, amylin (human islet amyloid polypeptide or hIAPP) (Homo sapiens, UniProt P10997)", "T1 construct": "5 μM amylin (human islet amyloid polypeptide or hIAPP) monomers", "T1 sequence (P10997 34-70 limits assumed)": "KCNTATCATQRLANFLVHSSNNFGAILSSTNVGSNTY", "assay": "Amylin aggregation assay (ThT)", "type": "biochemical", "details": "5 μM hIAPP monomers, various doses, 37° C."}}, "note": "*1 amine or outer side, *2 acyl side, *3 side chain or, on linkers, in order; H or OH if unused. Where a SMILES comes first, the peptide text is derived from it. Bridges are numbered along the chain shown (N, C = ends). [ ]: non-standard residue; d: D form. The star is where a group is joined. ξ: configuration not given here. X2 = O=C(C(N[*:1])c1ccc(OC2OC(CO)C(O)C(O)C2OC2OC(CO)C(O)C(O)C2O)cc1)[*:2]; Undeca(2Z,4E)dienoyl(10-Me) = CC(C)CCCC/C=C/C=C\\C(=O)*; Octa(2Z,4E)dienoyl(7-Me) = CC(C)C/C=C/C=C\\C(=O)*; X5 = O=C(C(N[*:1])c1cc(Cl)c(O)c(Cl)c1)[*:2]; ξPhg(3-Cl-4-OH) = NC(C(=O)O)c1ccc(O)c(Cl)c1; X1 = NC(=O)C(O[*:3])C(N[*:1])C(=O)[*:2]; X4 = N=C1NCC(CC(N[*:1])C(=O)[*:2])N1; Hpg = N[CH](C(=O)O)c1ccc(O)cc1; X3 = CCC(C)CCCC/C=C/C=C\\C(=O)*; Cit = NC(=O)NCCC[CH](N)C(=O)O; Orn = NCCC[CH](N)C(=O)O; X6 = Cc1ccccc1CC(=O)*"}
{"compound": "Teicoplanin [reference compound]", "values": [{"measurement": "in vitro aggregation of alpha-synuclein (ThT fluorescence)", "setting": "[1]", "result": "inhibits the in vitro aggregation"}, {"measurement": "Asyn oligomer formation (TEM)", "setting": "[1]", "result": "Asyn oligomer formation competes with Asyn fibril formation"}, {"measurement": "inhibition of seeded Tau aggregation", "setting": "[2]", "result": "showed inhibition of seeded Tau aggregation"}, {"measurement": "aggregation of bovine serum albumin (BSA)", "setting": "[3]", "result": "inhibition of the aggregation"}]}
{"compound": "CNC(CC(C)C)C(=O)NC1C(=O)NC(CC(N)=O)C(=O)NC2C(=O)NC3C(=O)NC(C(=O)NC(C(=O)O)c4cc(O)cc(O)c4-c4cc3ccc4O)C(O)c3ccc(c(Cl)c3)Oc3cc2cc(c3OC2OC(CO)C(O)C(O)C2OC2CC(C)(N)C(O)C(C)O2)Oc2ccc(cc2Cl)C1O", "note": "(stereo not drawn) [Vancomycin, reference compound]", "values": [{"measurement": "inhibition of seeded Tau aggregation", "setting": "[2]", "result": "showed inhibition of seeded Tau aggregation"}]}
{"compound": "CC(C)C/C=C/C=C\\C(=O)NC(CC(N)=O)C(=O)NC1C(=O)NC(c2ccc(O)cc2)C(=O)NC(CCCN)C(=O)NC(C(C)O)C(=O)NC(c2ccc(O)cc2)C(=O)NC(c2ccc(O)cc2)C(=O)NC(C(C)O)C(=O)NC(Cc2ccccc2)C(=O)NC(CCCN)C(=O)NC(c2ccc(O)cc2)C(=O)NC(C(C)O)C(=O)NC(c2ccc(O)cc2)C(=O)NCC(=O)NC(CC(C)C)C(=O)NC(C)C(=O)NC(c2ccc(O)c(Cl)c2)C(=O)OC1C(N)=O", "note": "(stereo not drawn) [Ramoplanin A2 Aglycon, Ramoplanin aglycon] ({Octa(2Z,4E)dienoyl(7-Me)}-N[X1][Hpg][Orn]T[Hpg][Hpg]TF[Orn][Hpg]T[Hpg]GLA[ξPhg(3-Cl-4-OH)]; ester 2-C; configuration not given here)", "values": [{"measurement": "in vitro aggregation of alpha-synuclein (ThT fluorescence)", "setting": "[1]", "result": "inhibit the in vitro aggregation"}, {"measurement": "Asyn oligomer formation (TEM)", "setting": "[1]", "result": "favors the formation of Asyn oligomers"}]}
{"compound": "CCC(C)CCCC/C=C/C=C\\C(=O)NC(CC(=O)O)C(=O)NC1C(=O)NC(c2ccc(O)cc2)C(=O)NC(CCCN)C(=O)NC(C(C)O)C(=O)NC(c2ccc(O)cc2)C(=O)NC(c2ccc(O)cc2)C(=O)NC(C(C)O)C(=O)NC(CCCNC(N)=O)C(=O)NC(CC2CNC(=N)N2)C(=O)NC(c2ccc(O)cc2)C(=O)NC(CO)C(=O)NC(c2cc(Cl)c(O)c(Cl)c2)C(=O)NCC(=O)NC(CC2CNC(=N)N2)C(=O)NC(C)C(=O)NC(c2ccc(O)cc2)C(=O)OC1C", "note": "(stereo not drawn) [Enduracidin B] (X3-DT[Hpg][Orn]T[Hpg][Hpg]T[Cit][X4][Hpg]S[X5]G[X4]A[Hpg]; ester 2-C; configuration not given here)", "values": [{"measurement": "in vitro aggregation of alpha-synuclein (ThT fluorescence)", "setting": "[1]", "result": "inhibit the in vitro aggregation"}, {"measurement": "Asyn fibril morphology (TEM)", "setting": "[1]", "result": "shorter fibrils with a rougher surface"}, {"measurement": "Asyn oligomer formation (TEM)", "setting": "[1]", "result": "Asyn oligomer formation also competes with Asyn fibril formation"}, {"measurement": "in vitro aggregation of amylin (final ThT fluorescence, t=50 h)", "setting": "[4]", "result": "inhibit the in vitro aggregation of amylin"}]}
{"compound": "CC(C)CCCC/C=C/C=C\\C(=O)NC(CC(=O)O)C(=O)NC1C(=O)NC(c2ccc(O)cc2)C(=O)NC(CCCN)C(=O)NC(C(C)O)C(=O)NC(c2ccc(O)cc2)C(=O)NC(c2ccc(O)cc2)C(=O)NC(C(C)O)C(=O)NC(CCCNC(N)=O)C(=O)NC(CC2CNC(=N)N2)C(=O)NC(c2ccc(O)cc2)C(=O)NC(CO)C(=O)NC(c2cc(Cl)c(O)c(Cl)c2)C(=O)NCC(=O)NC(CC2CNC(=N)N2)C(=O)NC(C)C(=O)NC(c2ccc(O)cc2)C(=O)OC1C", "note": "(stereo not drawn) [Enduracidin A] ({Undeca(2Z,4E)dienoyl(10-Me)}-DT[Hpg][Orn]T[Hpg][Hpg]T[Cit][X4][Hpg]S[X5]G[X4]A[Hpg]; ester 2-C; configuration not given here)", "values": [{"measurement": "in vitro aggregation of alpha-synuclein (ThT fluorescence)", "setting": "[1]", "result": "inhibit the in vitro aggregation"}, {"measurement": "Asyn fibril morphology (TEM)", "setting": "[1]", "result": "shorter fibrils with a rougher surface"}, {"measurement": "inhibition of seeded Tau aggregation", "setting": "[2]", "result": "showed inhibition of seeded Tau aggregation"}]}
{"compound": "Cc1ccccc1CC(=O)NC(CC(N)=O)C(=O)NC1C(=O)NC(c2ccc(O)cc2)C(=O)NC(CCCN)C(=O)NC(C(C)O)C(=O)NC(c2ccc(O)cc2)C(=O)NC(c2ccc(O)cc2)C(=O)NC(C(C)O)C(=O)NC(Cc2ccccc2)C(=O)NC(CCCN)C(=O)NC(c2ccc(OC3OC(CO)C(O)C(O)C3OC3OC(CO)C(O)C(O)C3O)cc2)C(=O)NC(C(C)O)C(=O)NC(c2ccc(O)cc2)C(=O)NCC(=O)NC(CC(C)C)C(=O)NC(C)C(=O)NC(c2ccc(O)c(Cl)c2)C(=O)OC1C(N)=O", "note": "(stereo not drawn) [NAI-603, Ramoplanin 2-methyl-phenyl derivative NAI-603] (X6-N[X1][Hpg][Orn]T[Hpg][Hpg]TF[Orn][X2]T[Hpg]GLA[ξPhg(3-Cl-4-OH)]; ester 2-C; configuration not given here)", "values": [{"measurement": "in vitro aggregation of amylin (final ThT fluorescence, t=50 h)", "setting": "[4]", "result": "inhibit the in vitro aggregation of amylin"}]}
